In PubChem BioAssay (NCI) one finds TGI and GI50 data, which are given here for 22 molecules.

Experiment in all cases: NCI tumour cell line growth inhibition, 48 h
Assay [1] deals with OVCAR-8 ovarian.
The test system of assay [2] is NCI-H460 lung.
The subject of assay [3] is HCT-15 colon.
For assay [4], the system named is DU-145 prostate.
The subject of assay [5] is SN12C renal.
Assay [6] has as its system UO-31 renal.
The subject of assay [7] is PC-3 prostate.
The subject of assay [8] is MALME-3M melanoma.
For assay [9], the system named is CAKI-1 renal.
Assay [10] relates to OVCAR-5 ovarian.

Structures are written as SMILES.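 Grown in 96-well plates, cells were treated for 48 hours with each compound at five concentrations. Insufficient inhibition: endpoint recorded as highest concentration tested. Here, GI50 denotes the concentration required for 50% inhibition of growth. Definition used: TGI = concentration required for complete inhibition of growth.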

Regarding `NNC(=O)Nc1nc2ccc(NN)cc2[nH]1`, the TGI in [1], in [2], in assay [3], in assay [4], in assay [5] and in [6] was greater than 100 µM each time. In addition, the TGI in [7], in assay [8], in assay [9] and in assay [10] was greater than 100 µM each time.

For `Cc1cccc2c(N)c3cccc(C(=O)NCC[N+](C)(C)Cc4ccc([N+](=O)[O-])s4)c3nc12`, the TGI was 42.9 µM in assay [1]; 16.5 µM in assay [2]; greater than 100 µM in assay [3]; 46.8 µM in [4]; 49 µM in assay [5]; greater than 74.7 µM in assay [6]. Further, the TGI in [7] is 30.5 µM; in assay [8], 25 µM; in [9], greater than 73.8 µM; in assay [10] it was greater than 61.2 µM.

With `CCCCc1ccc(Nc2ncc3ncn(COCCO)c3n2)cc1`, the TGI is greater than 100 µM in assay [1]; 57.9 µM in [2]; greater than 100 µM in [3]; greater than 100 µM in assay [4]; greater than 100 µM in assay [5]; 59.1 µM in assay [6]. The TGI in assay [7] was greater than 100 µM; in assay [8] it was 68.4 µM; in assay [9] it was greater than 100 µM; in assay [10], greater than 100 µM.

On to `COC(=O)[C@H](Cc1c[nH]c2ccccc12)NP(=O)(OCCC#N)OCC1OC(n2cc(C)c(=O)[nH]c2=O)CC1N=[N+]=[N-]` (stereo partly specified), for which the TGI in assay [1], in assay [2], in assay [3], in assay [4], in [5] and in assay [6] was greater than 100 µM each time. The TGI in [7], in [8], in [9] and in assay [10] was greater than 100 µM in each case.

`COc1ccc(C#Cn2nnc3ccccc32)cc1`: the TGI in [1] is greater than 100 µM; in assay [2] it was greater than 100 µM; in assay [3], greater than 100 µM; in assay [4], greater than 100 µM; in assay [5] it was greater than 100 µM; in assay [6], 4.47 µM. Moreover, the TGI in [7], in [8], in assay [9] and in assay [10] was greater than 100 µM each time.

As for `CC1CC[C@@]2(OC1)O[C@H]1[C@H](O)[C@H]3[C@@H]4CC[C@H]5C[C@@H](OC6OC(CO)C(OC7OC(CO)C(O)C(OC8OCC(O)C(O)C8O)C7OC7OC(CO)C(O)C(O)C7OC7OC(CO)C(O)C(O)C7O)C(O)C6O)[C@H](O)C[C@]5(C)[C@H]4CC[C@]3(C)[C@H]1[C@@H]2C` (stereo partly specified), the TGI in assay [1], in assay [2], in [3], in assay [4], in [5] and in assay [6] was greater than 10 µM throughout. Besides, the TGI in assay [7] is 7.84 µM; in assay [8], greater than 10 µM; in assay [9], greater than 10 µM; in assay [10] it was greater than 10 µM.

In the case of `CCOC(=O)/C(C(N)=O)=C(\O)C(=O)/C(Br)=C(\O)c1ccccc1`, the TGI worked out at 39.5 µM in assay [1]; 56.1 µM in assay [2]; 39.8 µM in [3]; 39.7 µM in assay [4]; 34.2 µM in [5]; 39.6 µM in assay [6]. Further, the TGI amounted to 31.7 µM in [7], 29.2 µM in assay [8], 24.6 µM in [9] and 37.5 µM in [10].

In the case of `CCOC(=O)C1CC(C(=O)c2ccccc2)N2c3ccccc3-c3ccccc3C12` (stereo unspecified), the TGI in assay [1], in assay [2], in assay [3], in [4], in assay [5] and in assay [6] was greater than 100 µM throughout. Besides, the TGI in [7], in assay [8], in assay [9] and in assay [10] was greater than 100 µM in each case.

On to `NC(Cc1ccc(OCc2ccccc2)cc1)C(=O)NC(Cc1ccccc1)C(=O)Oc1c(Cl)c(Cl)c(Cl)c(Cl)c1Cl` (stereo unspecified), for which the TGI in assay [1] is 31.8 µM; in assay [2], 30.5 µM; in assay [3], 30.2 µM; in assay [4] it was 27 µM; in assay [5], 32 µM; in assay [6], 30.4 µM. Moreover, the TGI in assay [7] worked out at 32.4 µM; in assay [8], 35.3 µM; in assay [9], 30.7 µM; in assay [10], 31.1 µM.

Turning to `Fc1cccc(F)c1C1SCc2nc3cc(Cl)c(Cl)cc3n21` (stereo unspecified), the TGI in [1], in [2], in assay [3], in [4], in [5] and in assay [6] was greater than 100 µM each time. Besides, the TGI in assay [7], in [8], in assay [9] and in assay [10] was greater than 100 µM throughout.

For the molecule `COC(=O)C1CC2(C)C=CC1N(C(=O)OCc1ccccc1)C2` (stereo unspecified), the TGI in assay [1], in assay [2], in assay [3], in assay [4], in assay [5] and in assay [6] was greater than 100 µM each time. Moreover, the TGI in assay [7], in [8], in assay [9] and in assay [10] was greater than 100 µM in each case.

For the molecule `C1=NCCNCCNCCN=Cc2ccc(cc2)OCc2cccc(n2)COc2ccc1cc2`, the TGI in [1], in assay [2], in assay [3], in assay [4], in assay [5] and in assay [6] was greater than 100 µM each time. The TGI in assay [7], in [8], in assay [9] and in [10] was greater than 100 µM each time.

Consider `CCn1c(=O)c2nc(SC)sc2n(-c2ccc(C)cc2)c1=O`, for which the TGI in assay [1], in assay [2], in assay [3], in assay [4], in assay [5] and in assay [6] was greater than 100 µM each time. Moreover, the TGI was greater than 100 µM in [7], greater than 81.7 µM in [8], greater than 100 µM in assay [9] and greater than 100 µM in [10]. The GI50 in assay [9] is greater than 100 µM.

As for `O=C1c2cc(Cc3ccccc3)c(=O)c(Cc3ccccc3)cc2C(=O)c2cc(Cc3ccccc3)c(=O)c(Cc3ccccc3)cc21`, the TGI in assay [1], in assay [2], in [3], in [4], in [5] and in assay [6] was greater than 100 µM in each case. Moreover, the TGI in assay [7], in [8], in assay [9] and in assay [10] was greater than 100 µM in each case.

`Cn1cccc1-c1ccc(-c2ccc(CO)[se]2)[se]1`: the TGI in assay [1] was greater than 100 µM; in [2] it was greater than 100 µM; in assay [3], greater than 100 µM; in [4], 70.1 µM; in assay [5], greater than 100 µM; in assay [6], 96.9 µM. The TGI is greater than 100 µM in [7], greater than 100 µM in [8], 44.5 µM in assay [9] and greater than 100 µM in assay [10].

Consider `COC(=O)c1ccccc1C1CN=NC12Cc1c(ccc3c1CCC3)C2=O` (stereo unspecified), for which the TGI in assay [1], in assay [2], in [3], in [4], in assay [5] and in [6] was greater than 100 µM throughout. Also, the TGI in assay [7], in [8], in [9] and in assay [10] was greater than 100 µM each time.

For `CC(C)(C)OC(=O)N/C(C=O)=C\C1CCCCC1`, the TGI in assay [1] is 31.7 µM; in [2], 40.6 µM; in [3], 41.8 µM; in assay [4], 95.9 µM; in assay [5] it was 42.1 µM; in assay [6], 30.2 µM. The TGI in [7] came to 47.4 µM; in assay [8], 70.4 µM; in [9], 46.9 µM; in [10], 42.3 µM.

Turning to `CCCC[C@@H](C)/C=C1\CN2CCC[C@H]2[C@@](C)(OCc2ccccc2)[C@@H]1O`, the TGI in assay [1] is greater than 50 µM; in [2] it was greater than 50 µM; in assay [3], greater than 50 µM; in assay [4], greater than 19.3 µM; in assay [5], greater than 50 µM; in assay [6] it was greater than 16.6 µM. For the same molecule, the TGI in assay [7], in [8], in assay [9] and in [10] was greater than 50 µM in each case.

Consider `Cc1cc(C)c2c(c1)CC1(Cc3cc(C)c(C)cc3C1=O)C2=O` (stereo unspecified), for which the TGI in assay [1], in assay [2], in assay [3], in assay [4], in assay [5] and in assay [6] was greater than 100 µM in each case. The TGI in assay [7], in assay [8], in assay [9] and in assay [10] was greater than 100 µM throughout.

As to `COc1cc2cc(C(=O)N3CC(COS(C)(=O)=O)c4ccc(NC(=O)OCc5ccccc5)cc43)[nH]c2c(OC)c1OC` (stereo unspecified), the TGI in [1], in assay [2], in assay [3], in assay [4], in [5] and in [6] was greater than 100 µM throughout. Moreover, the TGI in assay [7], in assay [8], in assay [9] and in assay [10] was greater than 100 µM throughout.

In the case of `COc1cccc(N=N/C(=N/NC(=O)c2ccc(C)cc2)c2ccc(N(CCC#N)CCC#N)cc2OC)c1`, the TGI in assay [1], in assay [2], in assay [3], in [4], in [5] and in assay [6] was greater than 100 µM in each case. In addition, the TGI in assay [7] is greater than 100 µM; in assay [8], greater than 100 µM; in [9], greater than 100 µM; in [10], 39.1 µM.

For the molecule `Nc1ccc(-c2nc3ccccc3s2)cc1Cl`, the TGI in assay [1], in assay [2], in assay [3], in assay [4], in assay [5] and in [6] was greater than 100 µM in each case. The TGI in assay [7], in assay [8], in assay [9] and in assay [10] was greater than 100 µM throughout.
